Measured values taken from publication PMC5400099, “5-Hydroxyethyl-3-tetradecanoyltetramic acid represents a novel treatment for intravascular catheter infections due to Staphylococcus aureus” (Journal of Antimicrobial Chemotherapy, 2016).
pIC50, pKd: −log10 of the molar value. Values after ≈ are worked out from the molar mass of the structure shown. Values joined by “and” are separate entries in the source; they are usually repeats but may differ in a detail not shown here. Equal entries are not always repeated. Where two headings read alike, the source gives them in different places.

How the values were obtained:
[1] = system: S. aureus; conditions: cited from earlier work
[2] = system: S. aureus; design: method as in PMID 15623555, PMID 19807189; conditions: sub-growth inhibitory concentrations; cited from earlier work
[3] = system: S. aureus; design: method as in PMID 24592914; conditions: cited from earlier work; for Effect on frequency and severity of arthritis: murine S. aureus arthritis model
[4] = system: S. aureus biofilms; design: method as in PMID 19807189; conditions: cited from earlier work
[5] = MTT cell viability assay, HaCaT; format: cell-based, Human; conditions: human, HaCaT keratinocyte cells; HaCaT, MTT, 24 h
Protocol: (§1) Human keratinocyte (HaCaT) cells were cultured in DMEM supplemented with 10% (v/v) FBS. Primary human umbilical vein endothelial cells (HUVECs) were cultured in EGM™-2 Bulletkit (Lonza) medium. HaCaT and HUVECs were harvested using TrypLE^TM Express (Gibco). Cells were seeded in microtitre plates at 3 × 10^5 cells/mL and incubated for 24 h at 37 °C with an antimicrobial compound ([…]) or Triton X100 at 1% (v/v). After removing the medium, cells were incubated with 500 mg/L MTT (Sigma-Aldrich) for 4 h. The crystals formed were solubilized with DMSO. Absorbance was recorded at 560 nm and the CC50 was determined.

[6] = system: Human keratinocyte (HaCaT) cells; test: MTT cell viability assay, HaCaT; format: cell-based; conditions: HaCaT cells
Protocol: as §1

[7] = system: staphylococcal membrane; design: method as in PMID 24592914; conditions: binding to the staphylococcal membrane, single site model; cited from earlier work
[8] = system: S. aureus biofilms; test: Biofilm susceptibility, resazurin-conversion assay on plasma-coated wells; format: cell-based, Staphylococcus aureus; design: Reduction of MRSA biofilm viability: dose or concentration left out as unconfirmed; conditions: for Reduction of biofilm viability: 512 and 1024 mg/L, 24 h treatment; for Comparative anti-biofilm activity: MRSA and MSSA biofilms, compared with the other agents evaluated
Protocol: Biofilms were formed as previously described to mimic in vivo conditions that promote formation of coagulase-mediated biofilms.[16] Briefly, microtitre plates or glass-bottom culture dishes (MaTek Co., USA) were coated with either 20% (v/v) or 100% (v/v) human plasma, respectively, and inoculated with S. aureus at an OD600 ∼0.2. After 1 h, non-adherent bacteria were aspirated, replaced with fresh RPMI-1640 and biofilms allowed to form over 24 h at 37 °C. Pre-formed biofilms were treated for 24 h with either 5HE-C14-TMA, C14-TOA or C14-TTA or a positive control [ethanol at 40% (v/v)]. Biofilm viability was measured by (i) resazurin-conversion assay (in microtitre wells), or (ii) live/dead imaging (glass-bottom dishes). Conversion of the non-fluorescent redox dye, resazurin into the fluorescent resorufin was performed as described previously.[16] A 44 μM resazurin (Sigma-Aldrich, UK) solution in RPMI-1640 was added to an equal biofilm volume and incubated for 1 h at 37 °C. Fluorescence (excitation 544 nm, emission 590 nm) was quantified using a Perkin Elmer 2030 Multilabel Reader Victor^TM X3. Biofilms were stained with SYTO9 Green (at 13.36 μM) and propidium iodide (at 80 μM) (Molecular Probes®) for 1 h prior to washing. Four representative images at ×40 and ×100 were obtained per experimental group, per experiment using a Zeiss LSM 510 META confocal microscope. Each experiment was repeated at least three times. Fluorescence intensity was quantified using Image J1 software (http://imagej.net/Welcome).

[9] = MTT cell viability assay, HUVEC; format: cell-based, human; conditions: human, primary HUVECs (umbilical vein endothelial cells); HUVEC, MTT, 24 h
Protocol: as §1

[10] = system: Primary human umbilical vein endothelial cells (HUVECs); test: MTT cell viability assay, HUVEC; format: cell-based; conditions: HUVECs
Protocol: as §1

[11] = Iron chelation; format: physicochemical; conditions: data not shown
[12] = system: S. aureus strain BH1CC; test: MIC by broth microdilution (CLSI), strain BH1CC; format: cell-based; conditions: Staphylococcus aureus; BH1CC (MRSA), Mueller–Hinton broth
Protocol: (§2) Community-acquired MRSA (CA-MRSA) strain USA300, its isogenic agr mutant,[17] the hospital-acquired MRSA (HA-MRSA) strain BH1CC,[18] the HA-MSSA strain BH48[19] and the MSSA strain SH1000[20] were cultured in Mueller–Hinton broth for susceptibility testing or in RPMI-1640 (Gibco) for biofilm formation. For the rat jugular vein catheter infection model, the S. aureus strain USA300 (LAC) lux[21] was used.
(§3) 5HE-C14-TMA and C14-TOA were synthesized as described previously[9] and C14-TTA as described in the Supplementary data available at JAC Online. Stock solutions of the compounds in DMSO at 10–50 mM were further diluted into tissue culture media or sodium chloride for the in vivo experiments. A DMSO solvent control was used in all in vitro experiments. The following antibiotics were used: vancomycin (Vancocin; Flynn Pharma Ltd., Republic of Ireland), daptomycin (Cubicin; Novartis, UK), gentamicin (Hospira, UK) and tigecycline (Tygacil; Pfizer Inc.). MICs were determined by broth microdilution in Mueller–Hinton broth, as recommended by the CLSI.

[13] = system: S. aureus strain SH1000; test: MIC by broth microdilution (CLSI), strain SH1000; format: cell-based; conditions: Staphylococcus aureus; SH1000 (MSSA), Mueller–Hinton broth
Protocol: as §2, §3

[14] = system: S. aureus strain USA300; test: MIC by broth microdilution (CLSI), strain USA300; format: cell-based; conditions: Staphylococcus aureus; USA300 (MRSA), Mueller–Hinton broth
Protocol: as §2, §3

[15] = system: agr quorum sensing system; design: method as in PMID 24592914; conditions: S. aureus; cited from earlier work
[16] = system: MRSA (USA300 JE2 and BH1CC) and MSSA (SH1000 and BH48) strains; test: MIC by broth microdilution, MRSA and MSSA strains; format: cell-based, Staphylococcus aureus; conditions: MRSA and MSSA strains investigated
Protocol: as §2, §3

[17] = system: S. aureus strain BH48; test: MIC by broth microdilution (CLSI), strain BH48; format: cell-based; conditions: Staphylococcus aureus; BH48 (MSSA), Mueller–Hinton broth
Protocol: as §2, §3

[18] = Haemolysis assay; format: cell-based; conditions: red blood cells; human RBC; read-out: CC50 (haemolytic activity)
Protocol: Human blood containing EDTA (1.6 g/L) was centrifuged at 1000 g for 5 min. Red blood cells (RBC) were washed twice with PBS, diluted 2-fold and incubated with compounds or Triton X100 (positive control) at 0.5% (v/v). A570 was determined to quantify haemolysis. IC50s were derived from the corresponding dose–response curves.

[19] = system: S. aureus USA300 LAC; test: Bactericidal activity (time-kill, viable counts); format: cell-based, Staphylococcus aureus; conditions: 8 × MIC, planktonic USA300
Protocol: S. aureus USA300 LAC was grown overnight in LB medium, diluted 250-fold and grown to an OD600 0.5. Cells were diluted to 1 × 10^6 per mL in challenge medium (LB plus 5HE-C14-TMA, C14-TOA or C14-TTA at 8 × MIC). Samples were removed and viable counts determined at 30 min intervals for the first hour followed by hourly sampling. The CLSI defines a compound as bactericidal if it reduces the starting inoculum colony count by at least 99.9% (3-logs).

[20] = system: S. aureus strain USA300 LAC; test: Membrane permeabilization: ATP release; format: cell-based, Staphylococcus aureus; conditions: 0-100 μM, 1 h
Protocol: (§4) Membrane permeabilization was evaluated by quantifying (i) ATP release,[22] and (ii) the uptake of propidium iodide.[22]S. aureus strain USA300 LAC was grown overnight in CYGP medium,[9] washed with sodium phosphate buffer (100 mM, pH 7), re-suspended to OD600 0.1 and incubated at 37 °C with a range of concentrations of each compound for 1 h. Nisin (0.6 μM) was used as a positive control. Cell-free supernatants were assayed for ATP using the Cell Titre-Glo kit (Promega). Staphylococcal cells were re-suspended in 100 mM sodium phosphate buffer (pH 7) containing propidium iodide (10 mg/L), incubated in the dark at room temperature for 10 min. After washing, propidium iodide fluorescence (excitation: 575 nm; emission 630 nm) was determined.

[21] = system: S. aureus strain USA300 LAC; test: Membrane permeabilization: propidium iodide uptake; format: cell-based, Staphylococcus aureus; conditions: 0-100 μM, 1 h
Protocol: as §4

CCCCCCCCCC(=O)CC(=O)N[C@H]1CCOC1=O [3-oxo-C12-HSL, N-(3-oxododecanoyl)-L-homoserine lactone, reference compound]
MIC ([1]; S. aureus growth): 100 μM and 30 mg/L

CCCCCCCCCC(=O)C1C(=O)NC(CCO)C1=O (centres unmarked) [5HE-C10-TMA, 5-hydroxyethyl-3-decanoyltetramic acid]
Selection for resistance on serial passage [2]: did not select for resistance
Toxicity in murine arthritis model [3]: neither C14-TOA nor 5HE-C10-TMA were toxic
Effect on frequency and severity of arthritis [3]: inactive
Activity against S. aureus biofilms ([4]; at 200 mg/L): inactive
Efficacy against S. aureus biofilms [4]: no efficacy

CCCCCCCCCC(=O)C1C(=O)CNC1=O (centres unmarked) [C10-TMA, reference compound]
Antibacterial activity after removal of the 5-hydroxyethyl moiety of 5HE-C10-TMA [1]: did not reduce antibacterial activity

CCCCCCCCCCCCCC(=O)C1=C(O)OCC1=O [C14-TOA, 3-tetradecanoyltetronic acid]
CC50 at 24 h [5]: 257 µM and 80 µg/mL
Selectivity index (SI, CC50/MIC) [6]: 20
pKd [7]: 5.70
Reduction of biofilm viability ([8]; resazurin): 2.5–3 fold
Comparative anti-biofilm activity [8]: far less effective
Toxicity in murine arthritis model [3]: neither C14-TOA nor 5HE-C10-TMA were toxic
Effect on frequency and severity of arthritis [3]: significantly reduced the frequency and severity of arthritis and joint destruction
Numbers of viable staphylococci in the kidneys ([3]; murine S. aureus infection model): did not, however, reduce
MIC ([1]; towards S. aureus): 25 µM (≈ 7.76 µg/mL)
CC50 at 24 h [9]: 28 µM and 9 µg/mL
Selectivity index (SI, CC50/MIC) [10]: 2.3
Iron chelation [11]: do not chelate iron
MIC [12]: 12.5 µM and 4 µg/mL
MIC [13]: 12.5 µM and 4 µg/mL
MIC [14]: 12.5 µM and 4 µg/mL
pIC50 [15]: 5.52
MIC [16]: 4 µg/mL (≈ 12.9 µM)
MIC ([16]; Staphylococcus aureus): 2 to 4 µg/mL (≈ 6.44 to 12.9 µM)
MIC [17]: 12.5 µM and 4 µg/mL
CC50 [18]: > 2.05 mM and > 667 µg/mL

CCCCCCCCCCCCCC(=O)C1=C(O)SCC1=O [C14-TTA, 3-tetradecanoylthiotetronic acid]
CC50 at 24 h [5]: 26 µM and 8.3 µg/mL
Selectivity index (SI, CC50/MIC) [6]: 2
Reduction of biofilm viability ([8]; resazurin): 2.5–3 fold
Comparative anti-biofilm activity [8]: far less effective
Iron chelation [11]: do not chelate iron
Bactericidal activity (CLSI: at least 3-log reduction) [19]: bactericidal
MIC [12]: 12.5 µM and 4 µg/mL
Extracellular ATP levels (ATP release relative to nisin 0.6 μM) [20]: least active
MIC [13]: 12.5 µM and 4 µg/mL
MIC [14]: 12.5 µM and 4 µg/mL
Propidium iodide fluorescence (uptake relative to nisin 0.6 μM) [21]: least active
MIC [16]: 4 µg/mL (≈ 12.3 µM)
MIC ([16]; Staphylococcus aureus): 2 to 4 µg/mL (≈ 6.13 to 12.3 µM)
MIC [17]: 12.5 µM and 4 µg/mL
CC50 [18]: 470 µM and 153 µg/mL

CCCCCCCCCC(=O)N[C@@H](Cc1c[nH]c2ccccc12)C(=O)N[C@H](CC(N)=O)C(=O)N[C@@H](CC(=O)O)C(=O)N[C@@H]1C(=O)NCC(=O)N[C@@H](CCCN)C(=O)N[C@@H](CC(=O)O)C(=O)N[C@H](C)C(=O)N[C@@H](CC(=O)O)C(=O)NCC(=O)N[C@H](CO)C(=O)N[C@@H]([C@H](C)CC(=O)O)C(=O)N[C@@H](CC(=O)c2ccccc2N)C(=O)O[C@@H]1C [daptomycin, reference compound]
Comparative anti-biofilm activity [8]: most active antimicrobial evaluated

CN[C@H](CC(C)C)C(=O)N[C@H]1C(=O)N[C@@H](CC(N)=O)C(=O)N[C@H]2C(=O)N[C@H]3C(=O)N[C@H](C(=O)N[C@H](C(=O)O)c4cc(O)cc(O)c4-c4cc3ccc4O)[C@H](O)c3ccc(c(Cl)c3)Oc3cc2cc(c3O[C@@H]2O[C@H](CO)[C@@H](O)[C@H](O)[C@H]2O[C@H]2C[C@](C)(N)[C@H](O)[C@H](C)O2)Oc2ccc(cc2Cl)[C@H]1O [vancomycin, reference compound]
Reduction of MRSA biofilm viability ([8]; MRSA biofilm, resazurin): 3.5–4 fold
